Data as given in publication PMC6204753, “Non-native autoinducer analogs capable of modulating the SdiA quorum sensing receptor in Salmonella enterica serovar Typhimurium” (Beilstein Journal of Organic Chemistry, 2018).
“Also recorded” adds a separate entry of the source. Where two headings read alike, the source gives them in different places.

Columns and labels:
[1] = target: T1, SdiA (Salmonella enterica subsp. enterica serovar Typhimurium, UniProt O66040); assay: S. Typhimurium-pJNS25 SdiA reporter, agonism (luminescence); type: cell-based; details: for Emax: read-out: activation (%); for EC50: agonism dose–response
T1 sequence (O66040 entry or part of it): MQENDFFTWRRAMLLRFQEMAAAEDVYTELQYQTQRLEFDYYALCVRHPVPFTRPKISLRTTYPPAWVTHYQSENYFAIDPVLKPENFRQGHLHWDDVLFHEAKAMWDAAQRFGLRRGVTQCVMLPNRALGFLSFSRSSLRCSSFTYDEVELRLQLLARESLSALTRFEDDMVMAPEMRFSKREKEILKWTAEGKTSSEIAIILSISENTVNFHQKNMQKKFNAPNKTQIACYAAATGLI
Text: (§1) Biological assays for SdiA activity. Cell-based reporter strains that rely on detecting the transcriptional activity of LuxR-type receptors are commonly used to assess the activity of exogenous ligands. We used the S. Typhimurium-pJNS25 reporter strain constructed by Smith and Ahmer and also used by Janssens et al. to examine SdiA activity. This strain naturally produces SdiA and contains a reporter plasmid with the promoter region for srgE fused to the luxABCDE operon of V. fischeri (see Experimental section for details of all strains and plasmids). SdiA activity is thus reported by the production of luciferase and resulting bioluminescence. We also prepared an SdiA reporter in E. coli (JLD271-pJN105SE-pSC11SE) to examine S. Typhimurium SdiA activity in an alternate background and with a different reporter gene output. […] This reporter construct uses an arabinose inducible promoter to produce S. Typhimurium SdiA and the promoter region for srgE fused to lacZ to report SdiA activity. SdiA activity is then measured using standard β-galactosidase assays. In both reporter strains, signal was normalized to the difference between the positive control (10 μM OOHL) and the negative control (1% DMSO; no compound).
(§2) Salmonella SdiA reporter assay. S. Typhimurium-pJNS25 was grown 16–18 h overnight in LB, diluted 1:100 in fresh LB medium, and then incubated for 6 h at 37 °C with shaking at 200 rpm in the presence of compounds (1% DMSO). […] All compounds were screened at 100 μM and 1 μM in triplicate in agonism and antagonism assays. […] Dose–response analyses were performed by preparing dilutions of compounds in DMSO and testing each concentration in the agonism or antagonism assays. Competition dose–response assays (data in Figure 5) were performed in the same manner as the antagonism assays, except instead of OOHL being added to the subculture, the antagonist being tested was added. Non-linear regression curve fits were generated using GraphPad Prism software (version 6) using variable slope (four parameter) dose–response analysis.

[2] = target: T1, SdiA; assay: S. Typhimurium-pJNS25 SdiA reporter, competitive antagonism against 10 nM L-OOHL; type: cell-based; details: for inhibition at 1 µM: read-out: Antagonism 1 μM Inhibition (%); for inhibition at 100 µM: read-out: Antagonism 100 μM Inhibition (%); for Emax: maximal inhibition, 100% minus lowest % activity in presence of 10 nM L-OOHL (2), read-out: inhibition (%)
Text: as §1, §2

[3] = 1 μM compound, average ± STD, change in activity from 10 nM 2 (OOHL)
[4] = 100 μM compound, average ± STD, change in activity from 10 nM 2 (OOHL)
[5] = maximal activation of the antagonists (partial agonism), Table 3
[6] = maximal activity (efficacy) from agonism dose–response, 10 μM OOHL = 100%, DMSO = 0%

| Compound | Antagonism 1 μM Inhibition (%) [2, 3] [%] | Antagonism 100 μM Inhibition (%) [2, 4] [%] | also measured |
| --- | --- | --- | --- |
| CCCCCCCC(=O)OCC(O)CO (racemic) [compound 23, 1-octanoyl-rac-glycerol, reference compound] |  |  | activity in the SdiA reporter assay (in words) ([1]; S. Typhimurium reporter): no agonism; also recorded: no activity; inhibition at 1 µM [2, 3]: 8 ± 14%; inhibition at 100 µM [2, 4]: 12 ± 4% |
| O=C(Oc1c(Br)cc(Br)cc1CNC(=O)c1ccccc1[N+](=O)[O-])c1ccccc1Cl [19R, reference compound] |  |  | Emax [1, 5]: 40%; inhibition at 1 µM [2, 3]: 43 ± 10%; inhibition at 100 µM [2, 4]: 38 ± 11%; Emax [2]: 44% |
| CCCC(=O)N[C@H]1CCOC1=O [A1, reference compound] | 7 ± 5 | -10 ± 11 | EC50 ([1]; read-out: EC50): 578 nM; activation (%) [1, 6]: 100% |
| CCCCCC(=O)N[C@H]1CCOC1=O [A2] |  |  | EC50 ([1]; read-out: EC50): 20.9 nM; Emax [1, 6]: 81%; inhibition at 1 µM [2, 3]: 15 ± 4%; inhibition at 100 µM [2, 4]: 3 ± 1% |
| CCCCCCCC(=O)N[C@H]1CCOC1=O [A3] | 10 ± 8 | 13 ± 14 | EC50 ([1]; read-out: EC50): 18.1 nM |
| CCCCCCCCCCCC(=O)N[C@H]1CCOC1=O [A5] |  |  | Emax [1, 5]: 57%; inhibition at 1 µM [2, 3]: 17 ± 10%; inhibition at 100 µM [2, 4]: 43 ± 4%; Emax [2]: > 50% |
| CCCCCCCCCCCCCCCC(=O)N[C@H]1CCOC1=O [A6] |  |  | Emax [1, 5]: 20%; inhibition at 1 µM [2, 3]: 17 ± 12%; inhibition at 100 µM [2, 4]: 38 ± 5%; IC50 ([2]; against 10 nM L-OOHL (EC90)): 1750 nM; Emax [2]: > 50% |
| CCCCCCCC(=O)CC(=O)N[C@H]1CCOC1=O [A7] |  |  | EC50 ([1]; read-out: EC50): 26.6 nM; Emax [1, 6]: 85%; inhibition at 1 µM [2, 3]: -4 ± 19%; inhibition at 100 µM [2, 4]: -2 ± 10% |
| [N-]=[N+]=NCCCCCCCCCCCC(=O)N[C@H]1CCOC1=O [Az-11] |  |  | EC50 [1]: 125 nM; activation (%) [1, 6]: fully agonize; Emax [1]: 110%; inhibition at 1 µM [2, 3]: -1 ± 17%; inhibition at 100 µM [2, 4]: -35 ± 6% |
| O=C(Cc1ccc(Br)cc1)N[C@@H]1CCOC1=O [B4] |  |  | Emax [1, 5]: 52%; inhibition at 1 µM [2, 3]: 41 ± 15%; inhibition at 100 µM [2, 4]: 16 ± 11%; Emax [2]: 50% |
| O=C(CCC1CCCCC1)N[C@H]1CCOC1=O [B11] |  |  | EC50 ([1]; read-out: EC50): 50.1 nM; Emax [1, 6]: 93%; inhibition at 1 µM [2, 3]: 6 ± 5%; inhibition at 100 µM [2, 4]: 8 ± 14% |
| O=C(CC1CCCC1)N[C@H]1CCOC1=O [B12] |  |  | EC50 ([1]; read-out: EC50): 54.7 nM; Emax [1, 6]: 93%; inhibition at 1 µM [2, 3]: 7 ± 7%; inhibition at 100 µM [2, 4]: 14 ± 9% |
| O=C(Cc1cccc(Cl)c1)N[C@H]1CCOC1=O [C6] |  |  | EC50 ([1]; read-out: EC50): 51.9 nM; Emax [1, 6]: 95%; inhibition at 1 µM [2, 3]: 9 ± 16%; inhibition at 100 µM [2, 4]: -20 ± 6% |
| O=C(Cc1cccc(Br)c1)N[C@H]1CCOC1=O [C8] |  |  | EC50 ([1]; read-out: EC50): 19.1 nM; Emax [1, 6]: 96%; inhibition at 1 µM [2, 3]: 21 ± 10%; inhibition at 100 µM [2, 4]: -22 ± 9% |
| O=C(Cc1ccccc1Br)N[C@H]1CCOC1=O [C9] |  |  | EC50 ([1]; read-out: EC50): 63.5 nM; Emax [1, 6]: 103%; inhibition at 1 µM [2, 3]: 9 ± 8%; inhibition at 100 µM [2, 4]: -48 ± 13% |
| O=C(Cc1ccc(I)cc1)N[C@H]1CCOC1=O [C10] |  |  | EC50 [1]: 47.2 nM; Emax [1]: 67%; inhibition at 1 µM [2]: 28 ± 6%; inhibition at 100 µM [2]: 27 ± 13% |
| O=C(Cc1cccc(I)c1)N[C@H]1CCOC1=O [C11] |  |  | EC50 ([1]; read-out: EC50): 20.6 nM; Emax [1, 6]: 90%; inhibition at 1 µM [2, 3]: 15 ± 11%; inhibition at 100 µM [2, 4]: -4 ± 2% |
| CCCCCCCCCCCCCC(=O)CC(=O)N[C@H]1CCOC1=O [H25] | 1 ± 13 | -9 ± 15 |  |
| CCCCCCCCCCCCCC(=O)N[C@H]1CCOC1=O [H26] | 5 ± 14 | 0 ± 8 | SdiA antagonism (in words) ([2]; S. Typhimurium reporter): failed to inhibit SdiA |
| O=C(N[C@H]1CCOC1=O)c1ccccc1Br [Q1] | 2 ± 5 | -3 ± 18 |  |
| O=C(N[C@H]1CCOC1=O)c1cccc(Br)c1 [Q2] | 17 ± 2 | 9 ± 13 |  |
| O=C(N[C@H]1CCOC1=O)c1ccc(F)cc1 [Q3] | 34 ± 2 | -26 ± 17 |  |
| O=C(N[C@H]1CCOC1=O)c1ccc(Cl)cc1 [Q4] | 30 ± 4 | -25 ± 15 |  |
| O=C(N[C@H]1CCOC1=O)c1ccc(I)cc1 [Q5] | 28 ± 10 | -14 ± 10 |  |
| COc1ccc(C(=O)N[C@H]2CCOC2=O)cc1 [Q6] | 26 ± 18 | -6 ± 14 |  |

| Compound | Antagonism 1 μM Inhibition (%) [2, 3] [%] | Antagonism 100 μM Inhibition (%) [2, 4] [%] | also measured |
| --- | --- | --- | --- |
| O=C(N[C@H]1CCOC1=O)c1ccc([N+](=O)[O-])cc1 [Q7] | 28 ± 7 | 20 ± 9 |  |
| Cc1ccc(C(=O)N[C@H]2CCOC2=O)cc1 [Q8] | 17 ± 3 | 11 ± 3 |  |
| O=C(N[C@H]1CCOC1=O)c1ccc2c(c1)OCO2 [Q11] | 7 ± 7 | -2 ± 12 |  |
| O=C(N[C@H]1CCOC1=O)c1ccc(-c2ccccc2)cc1 [Q12] | 20 ± 9 | 26 ± 14 |  |
| CC(C)(C)OC(=O)Nc1ccc(C(=O)N[C@H]2CCOC2=O)cc1 [Q13] | 19 ± 8 | -14 ± 2 |  |
| CCOc1ccc(C(=O)N[C@H]2CCOC2=O)cc1 [R1] | 22 ± 6 | 13 ± 8 |  |
| CCCOc1ccc(C(=O)N[C@H]2CCOC2=O)cc1 [R2] | 16 ± 9 | 11 ± 6 |  |
| CC(C)Oc1ccc(C(=O)N[C@H]2CCOC2=O)cc1 [R3] | 23 ± 8 | 11 ± 10 |  |
| CCCCOc1ccc(C(=O)N[C@H]2CCOC2=O)cc1 [R4] | 23 ± 9 | 11 ± 12 |  |
| CCCCCOc1ccc(C(=O)N[C@H]2CCOC2=O)cc1 [R5] | 10 ± 18 | -1 ± 9 |  |
| O=C(N[C@H]1CCOC1=O)C1CCCC1 [S4] | 27 ± 11 | -8 ± 11 |  |
| O=C(N[C@H]1CCOC1=O)C1CCCCC1 [S5] | 19 ± 4 | 13 ± 10 |  |
| CCCCCCCCCC(=O)CC(=O)N[C@H]1CCOC1=O [compound 1, reference compound] | 2 ± 17 | 15 ± 16 |  |
| CCCC(=O)CC(=O)N[C@H]1CCOC1=O [compound 3, reference compound] | 6 ± 16 | 20 ± 2 |  |
| CCCCCCC(=O)N[C@H]1CCOC1=O [compound 4, reference compound] | 26 ± 4 | 16 ± 5 |  |
| O=C(CC(=O)N[C@H]1CCOC1=O)Cc1ccccc1 [compound 5, reference compound] | 23 ± 9 | 17 ± 3 |  |
| O=C(CCCc1ccccc1)N[C@H]1CCOC1=O [compound 6, reference compound] | 31 ± 6 | 21 ± 10 |  |
| O=C(Cc1ccc(Br)cc1)N[C@H]1CCOC1=O [compound 7, reference compound] | 26 ± 9 | 21 ± 10 |  |
| O=C(CCc1ccc(Br)cc1)N[C@H]1CCOC1=O [compound 8, reference compound] | 15 ± 8 | 4 ± 3 |  |
| O=C(CCc1ccc(C(F)(F)F)cc1)N[C@H]1CCOC1=O [compound 9, reference compound] | 32 ± 10 | 11 ± 16 |  |
| O=C(CCCOc1ccc(Cl)cc1)N[C@H]1CCOC1=O [compound 10, reference compound] | 9 ± 12 | 5 ± 15 |  |
| CCCCCCCCCC(=O)CC(=O)Nc1cccc(OC)c1 [compound 14, reference compound] | 22 ± 19 | 12 ± 8 |  |
| CCCCCCCCCC(=O)CC(=O)NC1CCCCC1=O (stereo not shown) [compound 15, reference compound] | 16 ± 16 | 13 ± 8 |  |
| CCCCCCCCCC(=O)NC1CCCC1 [compound 17, reference compound] | 26 ± 12 | 28 ± 5 |  |
